Reference: ChEMBL document CHEMBL1255421, “In vitro fungicidal activities of echinocandins against Candida metapsilosis, C. orthopsilosis, and C. parapsilosis evaluated by time-kill studies” (2010)
Converted amounts (≈) assume the structure as drawn. The source made the active and inactive calls. No cut-off for these calls is given here. Numbered stars: 1 amine (or outer) side, 2 acyl side, 3 side chain; on linkers, the order of the positions; unused ones are H or OH. Bridge positions count the residues as written; N and C are the ends. Square brackets hold non-standard residues; d marks the D form. Peptide text beside a SMILES is read from it. * marks the point of attachment. pTerphenylCO(4''-OnC5H11) = CCCCCOc1ccc(-c2ccc(-c3ccc(C(=O)*)cc3)cc2)cc1; Orn(4R-OH,5R-OH) = O=C([C@H](C[C@@H](O)[C@@H](O)N[*:3])N[*:1])[*:2]; hTyr(3S-OH,4S-OH) = N[C@H](C(=O)O)[C@H](O)[C@@H](O)c1ccc(O)cc1; Pro(3S-OH,4S-Me) = C[C@H]1CN[C@H](C(=O)O)[C@H]1O; Hyp = O=C(O)[C@@H]1C[C@@H](O)CN1

Tests used:
Candida orthopsilosis [1] = test: Fungicidal activity against Candida orthopsilosis isolate CP-151 bloodstream form by CLSI method; assay type: functional; conditions: Lodderomyces orthopsilosis
Candida parapsilosis [2] = test: Antifungal activity against Candida parapsilosis clinical isolate bloodstream form assessed as induction of miniparadoxical effect at 32 mg/L after 48 hrs by time-kill assay; assay type: functional, organism-based
Candida parapsilosis [3] = test: Antifungal activity against Candida parapsilosis clinical isolate bloodstream form assessed as time required for 99% reduction in fungal growth at 32 mg/L by time-kill assay; assay type: functional
Candida orthopsilosis [4] = test: Antifungal activity against Candida orthopsilosis clinical isolate bloodstream form assessed as time required for 99% reduction in fungal growth at 4 mg/L by time-kill assay; assay type: functional
Candida orthopsilosis [5] = test: Antifungal activity against Candida orthopsilosis clinical isolate bloodstream form assessed as time required for 90% reduction in fungal growth at 0.25 mg/L by time-kill assay; assay type: functional
Candida metapsilosis [6] = test: Antifungal activity against Candida metapsilosis clinical isolate bloodstream form assessed as time required for 99% reduction in fungal growth at 16 mg/L by time-kill assay; assay type: functional
Candida orthopsilosis [7] = test: Antifungal activity against Candida orthopsilosis clinical isolate bloodstream form assessed as time required for 99% reduction in fungal growth at 16 mg/L by time-kill assay; assay type: functional
Candida metapsilosis [8] = test: Antifungal activity against Candida metapsilosis clinical isolate bloodstream form assessed as time required for 90% reduction in fungal growth at 16 mg/L by time-kill assay; assay type: functional
Candida parapsilosis [9] = test: Fungicidal activity against Candida parapsilosis isolate CP-302 bloodstream form by CLSI method; assay type: functional; conditions: Lodderomyces parapsilosis
Candida orthopsilosis [10] = test: Fungicidal activity against Candida orthopsilosis isolate CP-150 bloodstream form by CLSI method; assay type: functional; conditions: Lodderomyces orthopsilosis
Candida parapsilosis [11] = test: Antifungal activity against Candida parapsilosis clinical isolate bloodstream form assessed as time required for 90% reduction in fungal growth at 4 mg/L by time-kill assay; assay type: functional
Candida orthopsilosis [12] = test: Antifungal activity against Candida orthopsilosis clinical isolate bloodstream form assessed as time required for 90% reduction in fungal growth at 32 mg/L by time-kill assay; assay type: functional
Candida orthopsilosis [13] = test: Antifungal activity against Candida orthopsilosis clinical isolate bloodstream form assessed as induction of miniparadoxical effect at 32 mg/L after 48 hrs by time-kill assay; assay type: functional, organism-based
Candida parapsilosis [14] = test: Antifungal activity against Candida parapsilosis clinical isolate bloodstream form assessed as fungal count at 4 mg/L measured at 6 hrs by time-kill assay; assay type: functional
Candida orthopsilosis [15] = test: Fungicidal activity against Candida orthopsilosis isolate ATC194 bloodstream form by CLSI method; assay type: functional; conditions: Lodderomyces orthopsilosis, isolate ATC-194
Candida parapsilosis [16] = test: Antifungal activity against Candida parapsilosis clinical isolate bloodstream form assessed as time required for 99.9% reduction in fungal growth at 16 mg/L by time-kill assay; assay type: functional
Candida orthopsilosis [17] = test: Antifungal activity against Candida orthopsilosis clinical isolate bloodstream form assessed as time required for 99% reduction in fungal growth at 0.25 mg/L by time-kill assay; assay type: functional
Candida metapsilosis [18] = test: Antifungal activity against Candida metapsilosis clinical isolate bloodstream form assessed as time required for 99% reduction in fungal growth at 0.25 mg/L by time-kill assay; assay type: functional
Candida parapsilosis [19] = test: Fungicidal activity against Candida parapsilosis isolate CP-301 bloodstream form by CLSI method; assay type: functional; conditions: Lodderomyces parapsilosis
Candida parapsilosis [20] = test: Antifungal activity against Candida parapsilosis clinical isolate bloodstream form assessed as induction of fungal killing rate at 0.03 to 32 mg/L measured at 6 hrs by time-kill assay; assay type: functional, organism-based
Candida metapsilosis [21] = test: Antifungal activity against Candida metapsilosis clinical isolate bloodstream form assessed as time required for 99% reduction in fungal growth at 32 mg/L by time-kill assay; assay type: functional
Candida metapsilosis [22] = test: Antifungal activity against Candida metapsilosis clinical isolate bloodstream form assessed as induction of miniparadoxical effect at 32 mg/L after 48 hrs by time-kill assay; assay type: functional, organism-based
Candida parapsilosis [23] = test: Antifungal activity against Candida parapsilosis clinical isolate bloodstream form assessed as time required for 90% reduction in fungal growth at 0.25 mg/L by time-kill assay; assay type: functional
Candida parapsilosis [24] = test: Antifungal activity against Candida parapsilosis clinical isolate bloodstream form assessed as time required for 99.9% reduction in fungal growth at 32 mg/L by time-kill assay; assay type: functional
Candida metapsilosis [25] = test: Antifungal activity against Candida metapsilosis clinical isolate bloodstream form assessed as time required for 99.9% reduction in fungal growth at 4 mg/L by time-kill assay; assay type: functional
Candida orthopsilosis [26] = test: Antifungal activity against Candida orthopsilosis clinical isolate bloodstream form assessed as time required for 50% reduction in fungal growth at 32 mg/L by time-kill assay; assay type: functional
Candida orthopsilosis [27] = test: Antifungal activity against Candida orthopsilosis clinical isolate bloodstream form assessed as time required for 99.9% reduction in fungal growth at 1 mg/L by time-kill assay; assay type: functional
Candida parapsilosis [28] = test: Fungicidal activity against Candida parapsilosis isolate CP-300 bloodstream form by CLSI method; assay type: functional; conditions: Lodderomyces parapsilosis
Candida orthopsilosis [29] = test: Antifungal activity against Candida orthopsilosis clinical isolate bloodstream form assessed as time required for 99% reduction in fungal growth at 32 mg/L by time-kill assay; assay type: functional
Candida parapsilosis [30] = test: Antifungal activity against Candida parapsilosis clinical isolate bloodstream form assessed as time required for 90% reduction in fungal growth at 32 mg/L by time-kill assay; assay type: functional
Candida parapsilosis [31] = test: Antifungal activity against Candida parapsilosis clinical isolate bloodstream form assessed as time required for 50% reduction in fungal growth at 1 mg/L by time-kill assay; assay type: functional
Candida parapsilosis [32] = test: Fungicidal activity against Candida parapsilosis ATCC 22019 bloodstream form by CLSI method; assay type: functional; conditions: Lodderomyces parapsilosis
Candida orthopsilosis [33] = test: Antifungal activity against Candida orthopsilosis clinical isolate bloodstream form assessed as time required for 50% reduction in fungal growth at 16 mg/L by time-kill assay; assay type: functional
Candida parapsilosis [34] = test: Antifungal activity against Candida parapsilosis clinical isolate bloodstream form assessed as time required for 50% reduction in fungal growth at 4 mg/L by time-kill assay; assay type: functional
Candida orthopsilosis [35] = test: Antifungal activity against Candida orthopsilosis clinical isolate bloodstream form assessed as time required for 99.9% reduction in fungal growth at 32 mg/L by time-kill assay; assay type: functional
Candida parapsilosis [36] = test: Antifungal activity against Candida parapsilosis clinical isolate bloodstream form assessed as time required for 99% reduction in fungal growth at 16 mg/L by time-kill assay; assay type: functional
Candida metapsilosis [37] = test: Antifungal activity against Candida metapsilosis clinical isolate bloodstream form assessed as time required for 50% reduction in fungal growth at 32 mg/L by time-kill assay; assay type: functional
Candida parapsilosis [38] = test: Antifungal activity against Candida parapsilosis clinical isolate bloodstream form assessed as time required for 99% reduction in fungal growth at 4 mg/L by time-kill assay; assay type: functional
Candida metapsilosis [39] = test: Antifungal activity against Candida metapsilosis clinical isolate bloodstream form assessed as time required for 50% reduction in fungal growth at 1 mg/L by time-kill assay; assay type: functional

SMILES: CCCCCOc1ccc(-c2ccc(-c3ccc(C(=O)N[C@H]4C[C@@H](O)[C@@H](O)NC(=O)[C@@H]5[C@@H](O)[C@@H](C)CN5C(=O)[C@H]([C@@H](C)O)NC(=O)[C@H]([C@H](O)[C@@H](O)c5ccc(O)cc5)NC(=O)[C@@H]5C[C@@H](O)CN5C(=O)[C@H]([C@@H](C)O)NC4=O)cc3)cc2)cc1 [ANIDULAFUNGIN] ({pTerphenylCO(4''-OnC5H11)}-[Orn(4R-OH,5R-OH)]T[Hyp][hTyr(3S-OH,4S-OH)]T[Pro(3S-OH,4S-Me)]; lactam 1-C)
- MIC (Candida orthopsilosis [1]): 0.5 µg/mL (≈ 0.438 µM)
- Activity (Candida parapsilosis [2]): Active
- Time (Candida parapsilosis [3]): 27.89 h
- Time (Candida orthopsilosis [4]): 18.17 h
- Time (Candida orthopsilosis [5]): >48 h
- Time (Candida metapsilosis [6]): 10.02 h
- Time (Candida orthopsilosis [7]): 12.48 h
- Time (Candida metapsilosis [8]): 5.01 h
- MIC (Candida parapsilosis [9]): 1 µg/mL (≈ 0.877 µM)
- MIC (Candida orthopsilosis [10]): 0.25 µg/mL (≈ 0.219 µM)
- Time (Candida parapsilosis [11]): >48 h
- Time (Candida orthopsilosis [12]): 4.91 h
- Activity (Candida orthopsilosis [13]): Active
- log10cfu (Candida parapsilosis [14]): 1.48 /ml
- MIC (Candida orthopsilosis [15]): 0.12 µg/mL (≈ 0.105 µM)
- Time (Candida parapsilosis [16]): >48 h
- Time (Candida orthopsilosis [17]): >48 h
- Time (Candida metapsilosis [18]): 51.41 h
- MIC (Candida parapsilosis [19]): 1 µg/mL (≈ 0.877 µM)
- Activity (Candida parapsilosis [20]): inactive
- Time (Candida metapsilosis [21]): 9.37 h
- Activity (Candida metapsilosis [22]): inactive
- Time (Candida parapsilosis [23]): inactive
- Time (Candida parapsilosis [24]): 41.84 h
- Time (Candida metapsilosis [25]): 23.83 h
- Time (Candida orthopsilosis [26]): 1.48 h
- Time (Candida orthopsilosis [27]): >48 h
- MIC (Candida parapsilosis [28]): 0.5 µg/mL (≈ 0.438 µM)
- Time (Candida orthopsilosis [29]): 9.81 h
- Time (Candida parapsilosis [30]): 13.95 h
- Time (Candida parapsilosis [31]): inactive
- MIC (Candida parapsilosis [32]): 1 µg/mL (≈ 0.877 µM)
- Time (Candida orthopsilosis [33]): 1.88 h
- Time (Candida parapsilosis [34]): 26.41 h
- Time (Candida orthopsilosis [35]): 14.72 h
- Time (Candida parapsilosis [36]): >48 h
- Time (Candida metapsilosis [37]): 1.41 h
- Time (Candida parapsilosis [38]): >48 h
- Time (Candida metapsilosis [39]): 1.57 h
